Laboratory results taken from patent publication US6287848A, “Dosage modeling system” (Johns Hopkins University, priority 1999, dated 2001).
Read-outs that look alike come from different tables or passages of the source.

Key:
[1] = test system: human T-lymphoblastic cell line CEM, infected with HIV; assay: Intracellular and extracellular pharmacokinetic profiles of ZDV and its metabolites in hollow-fiber bioreactor dosing system (Example 2); type: in vitro ADME
Experimental: The bioreactor includes a cartridge of polypropylene capillaries that is commercially available from Unisyn Technologies, Inc. (Hopkinton, Mass.). The cells in the bioreactor are a human T-lymphoblastic cell line CEM, infected with HIV. The volume of distribution (VD), which is total amount of fluid in the loop 201 and the central reservoir 230, is 50 ml. The fast and slow pumps are Ismatic Peristaltic Pumps commercially available from Cole-Parmer (Niles, Ill.). The dosing element is a programmable dosing pump commercially available from Medex, Inc. (Deluth, Ga.).
The fast pump is operated at a flow rate of 35 ml/min. The dilution pump 218 is operated at a flow rate of 0.5 ml/min.
The drug Zidovudine (ZDV) is infused at four different dosing regimens for a dosing period of 24 hours, i.e., 0.1 μg/ml, continuously at 0.37 μM; 100 μg every 8 hours; 150 μg every 12 hours; and 300 μg at 24 hours. The control is operated without dosing ZDV.
Samples are removed through sampling port 272. Extracellular concentrations are determined from the fluid, and intracellular concentrations are determined after harvesting and treating the cells to extract the contents.
Drug concentration time curves allow the determination of Cmax, Cmin and AUC.
Thus, the AUCs are similar for the intracellular ZDV-diphosphate and intracellular ZDV-triphosphate.

[2] = test system: HIV reverse transcriptase; conditions: active metabolite; cited from earlier work

Structure (SMILES)	intracellular AUCs across four dosing regimens [1]	intracellular concentration on increasing the dose of ZDV [1]	intracellular concentration profiles across four dosing regimens ([1]; FIG. 11a-c, ZDV infused over 24 h: continuously at 0.37 μM, 100 μg every 8 hours, 150 μg every 12 hours, 300 μg at 24 hours)	intracellular concentration on increasing the dose of ZDV ([1]; increasing the dose of ZDV)	rate limiting step of intracellular ZDV phosphorylation ([1]; suggested by the data)	amount of ZDV-triphosphate resulting from all four dosing regimens [1]	inhibits HIV reverse transcriptase, which results in the inhibition of HIV replication [2]
Cc1cn([C@H]2C[C@H](N=[N+]=[N-])[C@@H](COP(=O)(O)OP(=O)(O)O)O2)c(=O)[nH]c1=O [ZDV-diphosphate]	similar	does not result in an increase	–	–	–	–	–
Cc1cn([C@H]2C[C@H](N=[N+]=[N-])[C@@H](COP(=O)(O)O)O2)c(=O)[nH]c1=O [ZDV-monophosphate]	–	–	different profiles	relative increase	rate limiting step is the conversion of ZDV-monophosphate to ZDV-iphosphate	–	–
Cc1cn([C@H]2C[C@H](N=[N+]=[N-])[C@@H](CO[P@](=O)(O)O[P@](=O)(O)OP(=O)(O)O)O2)c(=O)[nH]c1=O [ZDV-triphosphate]	similar	does not result in an increase	–	–	–	same amount	inhibits HIV reverse transcriptase
